From patent US4457932A, “Anti-ulcer agents” (Bristol-Myers Company, priority 1983, dated 1984)
Read-outs that look alike come from different tables or passages of the source.

Assays:
[1] = test system: ethanol-induced gastric ulcers (lesions); assay: Ethanol-induced ulcer model in the rat; assay type: in vivo, Adult male Long-Evans rats; settings: for inhibition in vivo at 30 mg/kg: 30 mg/kg p.o.; for inhibition in vivo at 50 mg/kg: 50 mg/kg p.o.
Protocol: The effectiveness of the compounds of Formula I as cytoprotective agents was determined by an ethanol-induced ulcer model in the rat. This model is a modification of the procedure described by A. Robert in Scand. J. Gastroenterology 16: (Suppl. 67): 243 (1981). This model which screens for cytoprotective compounds is based on the ability of 100% ethanol to produce gastric ulcers (primarily in the fundic region of the stomach) in rats in a dose-related manner. Further details of the model are described below.
Adult male Long-Evans rats weighing 275-300 grams (Blue Spruce Farm, Alton, N.Y.) are used. Animals are housed individually in stainless steel cages with wire-mesh bottoms. The housing battery is arranged into six groups of five each, individually numbered from rat number 1, group 1 to rat number 5, group 6. Food and water are removed 24 and 18 hours, respectively, prior to testing. On the following day animals receive the test compound either p.o., s.c. or i.p. 30 minutes or more before administration of 100% ethanol (3.0 ml/kg) by gavage. Sixty minutes later the animals are sacrificed by administration of T-61 (Hoechst), 0.2 ml i.p.
An abdominal incision is made and, after clamping the esophagus just above the esophageal sphincter with tweezers, the stomach is carefully lifted from the abdominal cavity. Two cuts are made approximately 1/2" below the pyloric valve and 1/2" above the esophageal sphincter, and the stomach removed and set aside. This step is very rapid (2-3 seconds) and no loss of gastric contents is apparent. The size of the stomach including contents is noted as small, medium or large. Stomachs are cut open along the lesser curvature and the contents expressed into graduated centrifuge tubes.
Under these conditions, ethanol produces prominent macroscopic lesions in the corpus, but gross macroscopic changes are only very rarely observed in the forestomach. […] In addition, absence of the forestomach allows the remaining stomach to lie flat on a surface for photography and examination without undue stretching of the tissue. For these reasons, the forestomach (along with nongastric tissue) is removed.
The remaining corpus and antrum are rinsed in water and placed flat in a standard position. The tissue is photographed with a Polaroid close-up camera and scoring of lesions is done from this permanent record. Each photograph includes a reference scale in mm. Two scoring systems are used. For screening purposes each stomach is graded on a scale of 0 to 3 as described below:
Where more precise data are needed, e,g, in determining the ED50 for a compound, the total lesion area in mm is measured. Barely visible spots (petechiae) are scored as 1 mm each. For each treatment group, an average score is calculated. From this, the percent inhibition of lesion formation, I, is calculated as:
I=Lesion Score (controls)-Lesion Score(treated)X 100 Lesion Score(controls)
In dose-response studies, the ED50 (dose at which 50% inhibition of lesion formation occurs) is determined by probit analysis according to Finney.

[2] = test system: aspirin-stress gastric ulcer; assay: Aspirin-stress gastric ulcer model in rats; assay type: in vivo; settings: 100 mg/kg p.o.
Protocol: (§1) The compound of Formula I wherein R^4 is methyl and R^1, R^2 and R^3 are each hydrogen was also tested in several other ulcer models. […] The results in the above models are probably indicative of the lack of significant anti-secretory activity in the compound of the present invention.

[3] = test system: cysteamine-induced duodenal ulcer; assay: Cysteamine-induced duodenal ulcer model in rats; assay type: in vivo; settings: dosed seven times over 30 hours (40 mg/kg, p.o.)
Protocol: as §1

gastric secretion = assay: Gastric secretion in the conscious gastric fistula rat; assay type: in vivo; settings: oral, read-out: oral ED50, block of gastric secretion
Protocol: as §1

[4] = test system: HCl-induced gastric lesions; assay: HCl-induced gastric lesions in the rat; assay type: in vivo; settings: po, read-out: ED50 against HCl-induced gastric lesions
[5] = po, rat, read-out: Antiulcer Activity, % Inhibition (of lesion formation)

O=c1c(-c2nnn[nH]2)cnc2ccc(Cl)cn12
inhibition in vivo at 12.6 mg/kg ([1]; po, 12.6 mg/kg p.o., rat, read-out: Antiulcer Activity, % Inhibition (of lesion formation)): 93%

CCCCC[C@H](O)/C=C/[C@H]1[C@H](O)CC(=O)[C@@H]1C/C=C\CCCC(=O)O [PGE2, reference compound]
ED50 ([1]; oral, rat, read-out: oral ED50): 0.024 mg/kg

Cc1ccn2c(=O)c(-c3nnn[nH]3)cnc2c1
inhibition in vivo at 30 mg/kg [1, 5]: 70%

Cc1cc(C)c2ncc(-c3nnn[nH]3)c(=O)n2c1
inhibition in vivo at 30 mg/kg [1, 5]: 92%

Cc1ccc2ncc(-c3nnn[nH]3)c(=O)n2c1
inhibition in vivo at 30 mg/kg [1, 5]: 79%

CCCc1cccn2c(=O)c(-c3nnn[nH]3)cnc12
inhibition in vivo at 30 mg/kg [1, 5]: 77%

Cc1cccn2c(=O)c(-c3nnn[nH]3)cnc12 [drawing 30]
inhibition in vivo at 30 mg/kg [1, 5]: 88% | ED50 ([1]; po, rat, table footnote, read-out: ED50 (dose at which 50% inhibition of lesion formation occurs)): 0.3 mg/kg

Cc1cccn2c(=O)c(-c3nnn[nH]3)cnc12
activity in aspirin-stress gastric ulcer model [2]: inactive | activity in cysteamine-induced duodenal ulcer model [3]: inactive | ED50 (gastric secretion): 27 mg/kg | ED50 [4]: 20.8 mg/kg

CCCCc1ccc2ncc(-c3nnn[nH]3)c(=O)n2c1
inhibition in vivo at 30 mg/kg [1, 5]: 54%

CCCCc1cccn2c(=O)c(-c3nnn[nH]3)cnc12
inhibition in vivo at 50 mg/kg [1, 5]: 41%

CN/C(=N/CCSCc1nc[nH]c1C)NC#N [Cimetidine, reference compound]
ED50 ([1]; Rattus norvegicus): 235 mg/kg

O=c1c(-c2nnn[nH]2)cnc2c3c(ccn12)CCCC3
inhibition in vivo at 30 mg/kg [1, 5]: 68%

sucralfate [reference compound]
oral ED50 ([1]; oral, rat): 21 mg/kg

Cc1cccc2ncc(-c3nnn[nH]3)c(=O)n12
inhibition in vivo at 30 mg/kg [1, 5]: 75%

CCc1cccn2c(=O)c(-c3nnn[nH]3)cnc12
inhibition in vivo at 50 mg/kg [1, 5]: 96%
